In patent publication US11186817B2, “Chemically defined cell culture media additive” (IUCF-HYU (INDUSTRY-UNIVERSITY COOPERATION FOUNDATION …, priority 2014, dated 2021):

Legend:
[1] = tested on: CHO DG44 cell line; experiment: Effective concentration range of THF: suspension growth of CHO DG44 in HY-CDM media; assay type: cell-based, Chinese hamster
Source text: (§1) 1. Cell line and media: CHO DG44 cell line was used as a DHFR-deficient cell line. The cell line was passaged 80 times or more and suspension adapted in HY-CDM (in-house) media as chemically defined media. The suspension-adapted cell line was used to evaluate the influence of tetrahydrofolate (THF) and dihydrofolate (DHF) and the growth characteristics in commercial chemically defined media. The HY-CDM media were composed of chemically defined components only. Each HY-CDM medium further included a growth factor. HY-CDM media used in Examples 1, 3, and 4 were free of an animal derived lipid mixture, and HY-CDM media used in Example 2 were supplemented with cod liver oil.
2. Cell suspension culture: The cell line was inoculated at a density of 4×10^5 cells/ml and cultured in an Erlenmeyer flask with a 30 ml/125 ml working volume on an orbital shaker at 120 rpm under humidified conditions at 37° C. and 5% CO2. Before inoculation, the cells were centrifuged at 1,000 rpm (×162 g) for 5 min, the supernatant was discarded, and the remaining cells were dispersed into single cells in the heated medium. The cells were passaged three times to minimize the influence of the remaining medium under the experimental conditions. The subcultured cells were evaluated.
(§2) 3. Density of live cells: The density of live cells was analyzed using a hemocytometer (Neubauer improved bright-line, Marienfeld, Germany), an inverted microscope (CK30, Olympus, Japan), and trypan blue dye exclusion.
In this example, the effective concentration range of THF inducing the suspension growth of the CHO DG44 cell line in the HY-CDM media was evaluated with varying amounts of THF.
To this end, the CHO DG44 cell line was passaged three time at a THF concentration of 0-480 mg/L, and their maximum cell densities and doubling times were measured.

[2] = tested on: CHO DG44 cell line; experiment: Growth of CHO DG44 cell line in commercial chemically defined media with and without THF; assay type: cell-based, Chinese hamster; settings: six commercial chemically defined media
Source text: as §1
2. Cell suspension culture: The cell line was inoculated at a density of 4×10^5 cells/ml and cultured in an Erlenmeyer flask with a 30 ml/125 ml working volume on an orbital shaker at 120 rpm under humidified conditions at 37° C. and 5% CO2. […] The subcultured cells were evaluated.
as §2
In this example, the versatility of the effect of THF addition to induce cell growth was evaluated. […]

## tetrahydrofolate [THF]
[1]; THF 0.2000 mg/L, HY-CDM
  Doubling time, Passage 3: 18.3 h
  Maximum cell density, Average: 25.9 ×10^5 cells/ml
  Maximum cell density, Passage 1: 26.6 ×10^5 cells/ml
  Maximum cell density, Passage 2: 25.0 ×10^5 cells/ml
  Maximum cell density, Passage 3: 26.1 ×10^5 cells/ml
[1]; THF 0.4 mg/L, HY-CDM
  Cell density increase: about 56%
[1]; THF 0.4000 mg/L, HY-CDM
  Doubling time, Average: 22.1 h
  Doubling time, Passage 1: 22.7 h
  Doubling time, Passage 2: 24.5 h
  Doubling time, Passage 3: 19.2 h
  Maximum cell density, Average: 29.7 ×10^5 cells/ml
  Maximum cell density, Passage 1: 30.2 ×10^5 cells/ml
  Maximum cell density, Passage 2: 28.1 ×10^5 cells/ml
  Maximum cell density, Passage 3: 30.9 ×10^5 cells/ml
[1]; THF 0.8 mg/L, HY-CDM
  Cell density increase: ~73%
[1]; THF 0.8000 mg/L, HY-CDM
  Doubling time, Average: 20.7 h
  Doubling time, Passage 1: 22.1 h
  Doubling time, Passage 2: 22.2 h
  Doubling time, Passage 3: 17.6 h
  Maximum cell density, Average: 35.3 ×10^5 cells/ml
  Maximum cell density, Passage 1: 34.2 ×10^5 cells/ml
  Maximum cell density, Passage 2: 35.4 ×10^5 cells/ml
  Maximum cell density, Passage 3: 36.4 ×10^5 cells/ml
[1]; THF 1.6000 mg/L, HY-CDM
  Doubling time, Average: 21.3 h
  Doubling time, Passage 1: 21.4 h
  Doubling time, Passage 2: 22.0 h
  Doubling time, Passage 3: 20.5 h
  Maximum cell density, Average: 46.9 ×10^5 cells/ml
  Maximum cell density, Passage 1: 46.0 ×10^5 cells/ml
  Maximum cell density, Passage 2: 47.0 ×10^5 cells/ml
  Maximum cell density, Passage 3: 47.8 ×10^5 cells/ml
[1]; THF 16.0000 mg/L, HY-CDM
  Doubling time, Average: 21.2 h
  Doubling time, Passage 1: 22.5 h
  Doubling time, Passage 2: 21.2 h
  Doubling time, Passage 3: 19.8 h
  Maximum cell density, Average: 50.1 ×10^5 cells/ml
  Maximum cell density, Passage 1: 52.0 ×10^5 cells/ml
  Maximum cell density, Passage 2: 48.8 ×10^5 cells/ml
  Maximum cell density, Passage 3: 49.6 ×10^5 cells/ml
[1]; THF 0.025-16 mg/L, HY-CDM
  Doubling time: 21.3 ± 0.7 h
  More rapid cell growth compared to control: ≥ 14%
[1]; THF 0.1-160 mg/L, chemically defined media
  Effect on cell growth: effective in improving the cell growth
[1]; THF 0.1-0.2 ma/L, HY-CDM
  Cell growth increase: ≥ 35%
[1]; THF 160 mg/L, HY-CDM
  Cell density increase: ~90%
[1]; THF 160.0000 mg/L, HY-CDM
  Doubling time, Average: 23.0 h
  Doubling time, Passage 1: 25.8 h
  Doubling time, Passage 2: 21.6 h
  Doubling time, Passage 3: 21.6 h
  Maximum cell density, Average: 35.7 ×10^5 cells/ml
  Maximum cell density, Passage 1: 33.0 ×10^5 cells/ml
  Maximum cell density, Passage 2: 36.4 ×10^5 cells/ml
  Maximum cell density, Passage 3: 37.6 ×10^5 cells/ml
[1]; THF 480 mg/L, HY-CDM
  Effect on cell growth: inhibited the cell growth
[1]; THF 480.0000 mg/L, HY-CDM
  Maximum cell density, Average: 06.3 ×10^5 cells/ml
  Maximum cell density, Passage 1: 09.4 ×10^5 cells/ml
  Maximum cell density, Passage 2: 04.6 ×10^5 cells/ml
  Maximum cell density, Passage 3: 04.8 ×10^5 cells/ml
[1]; THF 1.6-16 mg/L, HY-CDM
  Cell density increase (maximum): ≥ 155%
[2]
  Effect on cell density and growth rate: increased the cell density and growth rate
